The results in this text go back to publication PMC8047011, “Enantiomers of 2-methylglutamate and 2-methylglutamine selectively impact mouse brain metabolism and behavior” (Scientific Reports, 2021).

Like-named read-outs stand apart in the source and are kept apart here.

One test concerns the target T1, GABAA α2β3γ2 (Homo sapiens, UniProt P28472+P47869).
T1 construct: host or cells: HEK 293
The test can be described thus: FLIPR functional receptor assay, GABAA α2β3γ2. The settings on record: agonist mode; top test concentration 1 mM. Type of test: cell-based. On the procedure: (§1) Receptor functional & binding assays
(§2) Functional assays of all GABAA, NMDA (GluN2A–GluN2D) and AMPA (GluA2) receptor subunits were performed by SB Drug Discovery as a part of their CNS discovery panel using FLIPR technology. Briefly, receptor-expressing HEK 293 cell lines were incubated in a red membrane potential dye in HEPES:HBSS pH 7.4 buffer and the fluorescence (λex: 488, λex: 510–570) was monitored over time as the test compounds and/or reference compounds were added to the solution. In agonist assay, only test compounds were added. In positive allosteric modulator assay, cells were preincubated with test compounds and then low concentration (approximately EC20) of an appropriate agonist was added. In antagonist assay, cells were preincubated with test compounds and then high concentration (approximately EC80) of an appropriate agonist was added. For GABAA assays, GABA was used as the agonist, picrotoxin was used as the reference antagonist and allopregnanolone was used as the reference positive allosteric modulator (PAM). For NMDA assays, a mixture of glutamate, glycine and CaCl2 was used as the agonist, MK801 was the reference antagonist and pregnenolone sulfate or GNE 9278 were used as reference PAMs. […] All compounds were tested at 7 concentration points in triplicate and EC50/IC50 was determined where applicable. […]

A further test deals with T2, GABAA α4β1γ2 (Homo sapiens, UniProt P18505+P48169).
T2 construct: host or cells: HEK 293
The test can be described thus: FLIPR functional receptor assay, GABAA α4β1γ2. Format: cell-based. The note with it: agonist mode; top test concentration 1 mM. The procedure: as §1, §2

The next test concerns the target T3, GABAB (B1a/B2) (Homo sapiens, UniProt Q9UBS5).
T3 construct: purchased SB Drug Discovery (CNS discovery panel, FLIPR); Eurofins Discovery (Cerep)
The test can be described thus: GABAB (B1a/B2) binding assay. The settings on record: triplicate, read-out: % of radioligand binding inhibition, GABAB (B1a/B2). The procedure:
(§3) mGluR1, mGluR2, mGluR5 and GABAB binding assays were performed by Eurofins Discovery. […]
(§4) mGluR5 and GABAB binding assays were performed using recombinant CHO-K1 cells and
(§5) [3H]CGP-54626 and [3H]quisqalic acid, respectively. All compounds were tested at a single
(§6) concentration of 100 uM in triplicate. […]

Test [1] concerns mouse cerebral synaptosomes. The test can be described thus: Synaptosomal neurotransmitter uptake assay. Type of test: cell-based. The settings on record: 10 μM substrate; for Transport into synaptosomes: 37 °C. The procedure:
Mouse cerebral synaptosomes were prepared according to published methods. See Supplementary Methods for details. 500 μL aliquots of the synaptosome suspension were transferred to pre-chilled microcentrifuge tubes for experiments. Centrifugations were at 8000g for 4 min at 4 °C, unless stated otherwise, and all samples were stored at − 80 °C.
To each tube, 5 μL of a test compound solution (final concentration 10 μM) in Buffer KRP or Buffer KRP alone were added. Samples were incubated at 4 °C or 37 °C for 1, 10, or 30 min and then immediately centrifuged and washed twice by resuspension–centrifugation with Buffer S (0.5 mL). Resulting pellets were resuspended in 170 μL of 0.1% aqueous formic acid and mixed with 330 μL of ACN.
Buffer S (4 mL, × 1) and Buffer KRP (2 mL, × 3). The resulting pellet was resuspended in 3 mL of Buffer KRP and filtered on Ultrafree-CL 5 μm PVDF centrifugal device (1,000g for 4 min at 4 °C). The filtrate was diluted to 15 mL with ice cold Buffer KRP and kept on ice. The synaptosome preparation was used immediately in the following experiments.
Synaptosomal neurotransmitter uptake assay
96-well plate experiments: 250 μL aliquots of the synaptosome suspension were transferred to two 0.8-mL 96 well plates, one on ice (0 °C samples only) and one in a thermoblock (37 °C samples only), and equilibrated for 10 min. 5 μL of a test compound (0.5 mM; final concentration: 10 μM) in Buffer KRP or Buffer KRP blank were added 10, 20 or 30 min before the incubation termination. “0 min” samples were prepared by placing the test compound solution in a separate pre-chilled V-shape bottom 2-mL 96 well plate; at the end of incubation 200 μL aliquots of all samples were transferred to the 2-mL 96 well plate and centrifuged (2,500g for 15 min at 4 °C) immediately. The resulting pellets were rinsed with Buffer KRP, followed by centrifugation, twice, then resuspended in 200 μL of 60% ACN containing 2.5 μM Glu-d5 as internal standard and stored at –80 °C until analysis. […]

The next test addresses T4, mGluR2 (Homo sapiens, UniProt Q14416).
T4 construct: purchased SB Drug Discovery (CNS discovery panel, FLIPR); Eurofins Discovery (Cerep)
The test can be described thus: mGluR2 radioligand binding assay. The note with it: triplicate. On the procedure: as §3, §5, §6

A further test addresses T5, GABAA α2β2γ2 (Homo sapiens, UniProt P47869+P47870).
T5 construct: host or cells: HEK 293
The test can be described thus: FLIPR functional receptor assay, GABAA α2β2γ2. Format: cell-based. The note with it: agonist mode; top test concentration 1 mM. On the procedure: as §1, §2

In test [2] the test system is mouse cerebral synaptosomes. The test can be described thus: Potassium-induced neurotransmitter release assay. Format: cell-based. The settings on record: preincubated with 100 μM substrate 15 min 37 °C; high-potassium KRP buffer. The procedure: To each tube, 2.5 μL of a test compound solution (final concentration 100 μM) in Buffer KRP or Buffer KRP alone were added. Samples were incubated for 15 min at 37 °C, briefly chilled on ice, and then immediately centrifuged and washed twice with Buffer KRP. The resulting pellets were then resuspended in either Buffer KRP (500 μL) or Buffer K-KRP (500 μL). Samples were immediately centrifuged or incubated for 5, 10 or 15 min at 37 °C, then centrifuged and washed with Buffer KRP. Resulting pellets were resuspended in 400 μL of 60% ACN containing 2.5 μM Glu-d5 and 2.5 μM Gln-d5 as internal standards.

In another test the target is T6, GABAB (B1/B2) (Homo sapiens, UniProt Q9UBS5).
T6 construct: purchased SB Drug Discovery (CNS discovery panel, FLIPR); Eurofins Discovery (Cerep)
The test can be described thus: Functional GABAB assay, Ca2+-dependent fluorimetry in RBL cells. The note with it: 100 μM, triplicate. Format: cell-based.

Another test has as its target T7, mGluR5 (Homo sapiens, UniProt P41594).
T7 construct: purchased SB Drug Discovery (CNS discovery panel, FLIPR); Eurofins Discovery (Cerep)
The test can be described thus: mGluR5 radioligand binding assay. The settings on record: triplicate. The procedure:
as §3, §4, §5, §6

Setting [3] is: read-out: % of radioligand binding inhibition, mGluR5 (first line of Table S4).
[4] abbreviates: read-out: % of radioligand binding inhibition, mGluR5 (second line of Table S4).

T7 sequence (P41594 21-1212): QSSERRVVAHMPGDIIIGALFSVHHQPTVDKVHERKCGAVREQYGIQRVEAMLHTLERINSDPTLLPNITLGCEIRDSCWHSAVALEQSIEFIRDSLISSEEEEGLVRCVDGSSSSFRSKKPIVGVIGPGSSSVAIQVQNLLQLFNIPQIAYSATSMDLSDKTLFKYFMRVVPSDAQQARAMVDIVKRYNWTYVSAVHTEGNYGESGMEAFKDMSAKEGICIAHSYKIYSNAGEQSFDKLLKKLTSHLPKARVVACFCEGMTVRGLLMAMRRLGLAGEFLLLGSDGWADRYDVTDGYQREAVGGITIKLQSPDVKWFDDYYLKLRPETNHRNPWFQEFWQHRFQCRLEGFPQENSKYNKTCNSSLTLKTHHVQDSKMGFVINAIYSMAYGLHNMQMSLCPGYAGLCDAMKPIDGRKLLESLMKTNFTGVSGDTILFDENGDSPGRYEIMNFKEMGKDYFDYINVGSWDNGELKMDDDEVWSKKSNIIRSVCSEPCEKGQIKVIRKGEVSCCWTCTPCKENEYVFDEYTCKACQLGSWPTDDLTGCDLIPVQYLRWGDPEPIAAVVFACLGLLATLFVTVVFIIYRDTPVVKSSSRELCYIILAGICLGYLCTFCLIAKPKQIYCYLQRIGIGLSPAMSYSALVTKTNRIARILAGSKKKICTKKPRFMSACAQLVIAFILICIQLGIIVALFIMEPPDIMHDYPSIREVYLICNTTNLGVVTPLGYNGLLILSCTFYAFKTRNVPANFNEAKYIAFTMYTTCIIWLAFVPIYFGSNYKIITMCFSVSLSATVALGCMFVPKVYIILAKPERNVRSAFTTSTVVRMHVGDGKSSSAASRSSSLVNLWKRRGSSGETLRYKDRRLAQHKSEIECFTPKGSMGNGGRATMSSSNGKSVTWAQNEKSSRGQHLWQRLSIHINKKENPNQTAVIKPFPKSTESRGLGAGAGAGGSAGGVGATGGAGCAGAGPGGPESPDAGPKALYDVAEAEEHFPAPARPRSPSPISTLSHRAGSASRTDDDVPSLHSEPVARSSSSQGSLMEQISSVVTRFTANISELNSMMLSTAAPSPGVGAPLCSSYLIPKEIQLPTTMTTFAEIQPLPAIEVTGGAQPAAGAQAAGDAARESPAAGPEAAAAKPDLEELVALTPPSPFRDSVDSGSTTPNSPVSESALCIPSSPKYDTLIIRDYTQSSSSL
T6 sequence (Q9UBS5 20-961): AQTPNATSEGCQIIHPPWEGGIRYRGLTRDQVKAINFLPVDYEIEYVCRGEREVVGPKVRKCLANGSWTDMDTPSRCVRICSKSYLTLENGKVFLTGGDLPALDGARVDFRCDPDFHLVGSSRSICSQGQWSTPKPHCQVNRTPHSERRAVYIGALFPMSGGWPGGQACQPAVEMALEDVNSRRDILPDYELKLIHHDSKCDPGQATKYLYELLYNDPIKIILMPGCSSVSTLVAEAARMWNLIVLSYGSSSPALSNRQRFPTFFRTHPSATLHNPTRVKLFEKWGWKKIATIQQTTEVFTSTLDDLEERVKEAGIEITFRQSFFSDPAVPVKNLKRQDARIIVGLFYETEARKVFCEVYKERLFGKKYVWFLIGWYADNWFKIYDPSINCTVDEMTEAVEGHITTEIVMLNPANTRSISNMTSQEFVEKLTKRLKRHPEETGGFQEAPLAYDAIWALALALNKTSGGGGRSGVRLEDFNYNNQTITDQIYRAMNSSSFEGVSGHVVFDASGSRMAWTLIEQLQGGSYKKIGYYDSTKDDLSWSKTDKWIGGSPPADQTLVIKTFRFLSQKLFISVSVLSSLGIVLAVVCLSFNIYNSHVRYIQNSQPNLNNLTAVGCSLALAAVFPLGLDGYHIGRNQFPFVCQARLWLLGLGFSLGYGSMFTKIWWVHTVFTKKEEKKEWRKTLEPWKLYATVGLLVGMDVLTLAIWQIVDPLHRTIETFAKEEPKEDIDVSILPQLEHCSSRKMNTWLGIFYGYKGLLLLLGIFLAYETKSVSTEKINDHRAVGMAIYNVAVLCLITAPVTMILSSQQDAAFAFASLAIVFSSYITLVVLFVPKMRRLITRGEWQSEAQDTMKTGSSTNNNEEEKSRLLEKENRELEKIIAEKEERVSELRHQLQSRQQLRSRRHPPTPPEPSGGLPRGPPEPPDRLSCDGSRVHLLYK
T6 sequence (O75899 42-941 partner): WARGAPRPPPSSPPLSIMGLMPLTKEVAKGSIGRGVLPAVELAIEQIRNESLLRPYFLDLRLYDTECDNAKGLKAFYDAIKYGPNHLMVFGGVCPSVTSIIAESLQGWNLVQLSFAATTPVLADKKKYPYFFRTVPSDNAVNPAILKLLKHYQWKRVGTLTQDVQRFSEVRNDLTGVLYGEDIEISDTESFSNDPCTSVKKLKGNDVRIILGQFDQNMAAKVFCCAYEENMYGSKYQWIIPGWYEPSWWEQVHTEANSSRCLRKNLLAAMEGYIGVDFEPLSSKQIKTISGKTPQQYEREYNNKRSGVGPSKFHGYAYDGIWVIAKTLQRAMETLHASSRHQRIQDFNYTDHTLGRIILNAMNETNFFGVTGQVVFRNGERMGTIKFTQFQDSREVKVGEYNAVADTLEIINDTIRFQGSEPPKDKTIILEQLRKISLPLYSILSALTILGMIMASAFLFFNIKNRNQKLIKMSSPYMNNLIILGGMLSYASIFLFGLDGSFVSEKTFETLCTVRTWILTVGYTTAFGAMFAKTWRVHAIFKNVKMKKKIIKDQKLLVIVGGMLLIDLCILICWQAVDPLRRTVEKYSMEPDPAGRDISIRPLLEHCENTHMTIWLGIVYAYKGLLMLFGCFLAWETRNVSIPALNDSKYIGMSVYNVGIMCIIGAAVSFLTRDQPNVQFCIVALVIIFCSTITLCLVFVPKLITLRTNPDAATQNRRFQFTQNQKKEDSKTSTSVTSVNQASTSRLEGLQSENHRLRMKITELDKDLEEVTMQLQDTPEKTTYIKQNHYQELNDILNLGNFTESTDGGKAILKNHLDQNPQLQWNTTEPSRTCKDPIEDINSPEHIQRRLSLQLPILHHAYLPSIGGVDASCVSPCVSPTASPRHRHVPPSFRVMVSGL
T4 sequence (Q14416 19-872): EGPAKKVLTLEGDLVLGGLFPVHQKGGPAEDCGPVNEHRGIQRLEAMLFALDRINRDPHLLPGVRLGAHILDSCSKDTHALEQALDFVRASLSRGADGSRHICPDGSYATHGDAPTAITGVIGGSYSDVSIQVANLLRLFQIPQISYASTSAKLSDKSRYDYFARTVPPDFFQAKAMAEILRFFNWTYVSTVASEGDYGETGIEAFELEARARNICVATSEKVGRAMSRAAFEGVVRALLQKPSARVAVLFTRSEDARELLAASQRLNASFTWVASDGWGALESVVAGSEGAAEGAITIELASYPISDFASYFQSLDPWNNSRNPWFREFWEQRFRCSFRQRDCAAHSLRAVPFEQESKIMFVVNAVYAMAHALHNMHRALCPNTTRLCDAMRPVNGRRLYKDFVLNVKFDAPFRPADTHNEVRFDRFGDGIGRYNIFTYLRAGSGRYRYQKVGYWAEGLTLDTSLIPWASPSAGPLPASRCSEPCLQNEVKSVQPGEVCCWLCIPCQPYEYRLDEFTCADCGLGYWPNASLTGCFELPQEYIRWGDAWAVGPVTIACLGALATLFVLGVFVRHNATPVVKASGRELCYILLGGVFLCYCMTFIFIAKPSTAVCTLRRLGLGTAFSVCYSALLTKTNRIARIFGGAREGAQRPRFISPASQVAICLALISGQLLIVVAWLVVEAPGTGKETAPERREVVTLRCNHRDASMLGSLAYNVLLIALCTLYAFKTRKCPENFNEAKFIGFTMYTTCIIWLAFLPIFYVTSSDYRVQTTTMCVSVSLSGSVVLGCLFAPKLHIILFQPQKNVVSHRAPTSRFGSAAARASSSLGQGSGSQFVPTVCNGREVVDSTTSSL
T3 sequence (Q9UBS5 15-961 limits assumed): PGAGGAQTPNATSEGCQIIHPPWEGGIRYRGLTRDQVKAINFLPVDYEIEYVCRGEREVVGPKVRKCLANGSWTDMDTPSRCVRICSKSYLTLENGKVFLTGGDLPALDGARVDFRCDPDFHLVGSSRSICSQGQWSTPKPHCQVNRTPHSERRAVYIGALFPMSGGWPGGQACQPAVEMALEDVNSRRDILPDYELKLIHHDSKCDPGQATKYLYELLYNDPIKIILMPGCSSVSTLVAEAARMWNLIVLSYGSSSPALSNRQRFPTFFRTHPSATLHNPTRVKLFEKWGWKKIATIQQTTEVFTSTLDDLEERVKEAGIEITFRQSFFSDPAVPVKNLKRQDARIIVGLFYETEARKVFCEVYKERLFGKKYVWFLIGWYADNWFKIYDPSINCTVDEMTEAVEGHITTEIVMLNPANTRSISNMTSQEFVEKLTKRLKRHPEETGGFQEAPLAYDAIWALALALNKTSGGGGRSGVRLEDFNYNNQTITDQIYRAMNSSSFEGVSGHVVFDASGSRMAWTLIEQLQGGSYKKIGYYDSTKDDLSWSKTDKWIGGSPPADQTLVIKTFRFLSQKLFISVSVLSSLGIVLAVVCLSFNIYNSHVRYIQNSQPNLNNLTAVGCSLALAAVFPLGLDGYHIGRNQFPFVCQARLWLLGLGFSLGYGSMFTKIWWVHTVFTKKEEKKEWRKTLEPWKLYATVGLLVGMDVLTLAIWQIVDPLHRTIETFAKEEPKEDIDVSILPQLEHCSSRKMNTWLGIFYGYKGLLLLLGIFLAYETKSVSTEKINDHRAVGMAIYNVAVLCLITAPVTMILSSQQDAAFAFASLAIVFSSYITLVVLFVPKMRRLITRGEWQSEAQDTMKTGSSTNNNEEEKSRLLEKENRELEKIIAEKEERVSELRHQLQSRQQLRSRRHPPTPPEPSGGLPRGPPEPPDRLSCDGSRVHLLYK
T3 sequence (O75899 42-941 partner): as the sequence (O75899 42-941 partner) above

A word on the EC50: it is the concentration that produces a half-maximal response. Low values mean an effect from little substance, high ones a need for much substance. For the compound `C[C@@](N)(CCC(=O)O)C(=O)O` [(R)-2MeGlu, (R)-2-methylglutamic acid], the EC50 on GABAA α2β3γ2 was determined as 622 µM; at GABAA α4β1γ2, 870 µM; on GABAA α2β2γ2, 660 µM. Also, the inhibition at 100 µM at GABAB (B1a/B2) is 18%; at mGluR2, -3%; at mGluR5 (setting [3]), -20%; on mGluR5 (setting [4]), -2%. For the same compound, in test [1], the Transport into synaptosomes entry is reported as “transported into synaptosomes”. In test [2], the “Potassium-induced release from preloaded synaptosomes” value was “not significantly altered by depolarization”. Also, on GABAB (B1/B2), the “% of agonist response, GABAB (B1/B2)” value was 0%.
On to `C[C@](N)(CCC(=O)O)C(=O)O` [(S)-2MeGlu, (S)-2-methylglutamic acid], for which the concentration giving a half-maximal response (EC50) on GABAA α2β3γ2 worked out at 342 µM; on GABAA α4β1γ2, 704 µM; at GABAA α2β2γ2 it was 530 µM. Also, the inhibition at 100 µM at GABAB (B1a/B2) is 6%; on mGluR2 it was 25%; at mGluR5 (setting [3]), 11%; at mGluR5 (setting [4]), -4%. Also, the “Synaptosomal uptake rate relative to the R enantiomer” value in test [1] is reported as “approximately threefold faster”. Also, the Transport into synaptosomes result in test [1] is listed as “transported into synaptosomes”. Moreover, the “Potassium-induced release from preloaded synaptosomes” value in test [2] is given as “released upon depolarization in a manner very similar to endogenous Glu”. On GABAB (B1/B2), the “% of agonist response, GABAB (B1/B2)” value stood at 0%.
